According to PubChem BioAssay (NCI):
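Cells were grown in 96-well plates and exposed to each compound for 48 hours at five concentrations; endpoints were interpolated linearly between bracketing concentrations, or set to the highest concentration if not reached. TGI marks complete inhibition of growth.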

Tests used:
Test in all cases: NCI anticancer screen, dose series, 48 h
A498 renal = system: A498 renal
A549 NSCLC = system: A549 NSCLC
COLO 205 colon = system: COLO 205 colon
HL-60(TB) leukemia = system: HL-60(TB) leukemia
OVCAR-5 ovarian = system: OVCAR-5 ovarian
OVCAR-8 ovarian = system: OVCAR-8 ovarian
SK-OV-3 ovarian = system: SK-OV-3 ovarian
SN12C renal = system: SN12C renal
SW-620 colon = system: SW-620 colon

| SMILES | TGI (A498 renal) [µM] | TGI (A549 NSCLC) [µM] | TGI (COLO 205 colon) [µM] | TGI (HL-60(TB) leukemia) [µM] | TGI (OVCAR-5 ovarian) [µM] | TGI (OVCAR-8 ovarian) [µM] | TGI (SK-OV-3 ovarian) [µM] | TGI (SN12C renal) [µM] | TGI (SW-620 colon) [µM] |
| --- | --- | --- | --- | --- | --- | --- | --- | --- | --- |
| Cc1cc(O)c(C(=O)CC2(O)C(=O)Nc3c(Cl)cc(Cl)cc32)c(=O)o1 (configuration not stated) | > 100 | > 100 | > 100 | > 100 | > 100 | > 100 | > 100 | > 100 | > 100 |
| Clc1ccc(-n2nnc(C3=NCCCN3)c2-c2ccccc2)cc1 | > 100 | > 100 | > 100 | > 100 | > 100 | > 100 | > 100 | > 100 | > 100 |
| CC(=O)NC1=C(Nc2ccc(C)cc2)C(=O)c2ccccc2C1=O | > 75 | 29.3 | 45.3 | 41.1 | 27.4 | > 75 | > 75 | 44 | 27.7 |
| N#CCc1ccc(C(C#N)/C(CCCC(=O)Nc2cccc([N+](=O)[O-])c2)=N\NC(=O)NN)cc1 (configuration not stated) | > 100 | > 100 | > 100 | > 100 | > 100 | > 100 | > 100 | > 100 | > 100 |
| NCCCN(CCCN)CCCNCc1c2ccccc2c(CNCCCN(CCCN)CCCN)c2ccccc12 | 60.2 | > 100 | 22.5 | 38 | > 100 | 25.8 |  | 34.2 | 32.5 |
| Cc1cccc(C)c1NC(=O)CCCC(=O)CC(=O)/C=C/c1ccccc1 | > 100 | > 100 | > 100 |  | > 100 | > 100 | > 100 | > 100 | > 100 |
| CN(C)CC(/C(Cc1ccccc1)=N\NC(=O)c1ccncc1)c1ccccc1 (configuration not stated) |  | > 100 | > 100 | 32 | > 100 | > 100 | > 100 | > 100 | > 100 |
| CC1Cc2c(N)nc(NN)nc2NC1=O (configuration not stated) |  | > 100 | > 100 | > 100 |  | > 100 | > 100 | > 100 | > 100 |
| CCOC(=O)/C(=C\c1ccc(OCc2ccccc2)c(OC)c1)C(=O)c1ccccc1 |  | > 10 | 99.2 | 49 | 48.6 | > 10 | > 100 | 45.6 | 40 |
| COC(=O)/C=C(C)/C=C/c1cc(C(C)=O)c(C)o1 |  | > 100 |  | > 100 | > 100 | > 100 | > 100 |  | > 100 |
| COc1ccc2c([nH]c3cc(O)c(C)cc32)c1C=O |  | > 25 | > 25 | > 25 | > 25 | > 25 | > 25 | > 25 | > 25 |
| O=C1CCCCCCCCCCC(=O)C2CCOCCOCCOCCC1Cc1cccc(n1)C2 | > 100 | > 100 | > 100 |  |  | > 100 | > 100 | > 100 | > 100 |
| CC1(CO)OC1COCc1ccccc1 (configuration not stated) |  | > 100 | > 100 | > 100 | > 100 | > 100 | > 100 | > 100 | > 100 |
| N#Cc1ccccc1NC(=O)/C(=N\NC(=O)c1ccncc1)C(c1cnc2ccc([N+](=O)[O-])cc2n1)[N+](=O)[O-] (configuration not stated) | > 100 | > 100 |  | > 100 | > 100 | > 100 | > 100 | > 100 | > 100 |
| C=CC[C@H]1C[C@@]2(C)OC[C@H](C(C)C)N2C1=O | > 100 | > 100 | > 100 |  | > 100 | > 100 |  | > 100 | > 100 |
| N/N=C(\CC1OC(=O)c2ccccc21)c1ccco1 (configuration not stated) | > 100 | > 100 | > 100 | > 100 | > 100 |  | > 100 |  | > 100 |
| COc1ccc(C2S/C(=C\c3cc(OC)c(OC)c(OC)c3)C(=O)N2NC(=O)Cc2ccccc2)cc1 (configuration not stated) |  | > 100 | > 100 | > 100 | > 100 | > 100 | > 100 | > 100 | > 100 |
| CCOc1cc2c(cnc3c4cc(OC)c(OC)cc4ccc23)cc1OC | > 100 | > 100 | > 100 |  | > 100 | > 100 | > 100 | > 100 | > 100 |
| c1nc2cscc2c2cscc12 | > 100 | > 100 |  | > 100 | > 100 | > 100 | > 100 | > 100 | > 100 |
| O=[N+]([O-])c1ccc(Sc2c3ccccc3nc3ccccc23)cc1 |  | > 100 | > 100 | > 100 | > 100 | > 100 |  | > 100 | > 100 |
